From ChEMBL document CHEMBL1150266, “Design and synthesis of conformationally constrained glucagon-like peptide-1 derivatives with increased plasma stability and prolonged in vivo activity” (J Med Chem, 2008) come the findings set out here.

Each structure is given as a SMILES string. Where a SMILES comes first, the peptide text is derived from it. Bridges are numbered along the chain shown (N, C = ends). [ ]: non-standard residue; d: D form. Phe(4-COOH) = N[C@@H](Cc1ccc(C(=O)O)cc1)C(=O)O

Data set [1] has as its target T1, Glucagon-like peptide 1 receptor (Homo sapiens, UniProt P43220). Description: Displacement of [125I]GLP1 from human GLP1R expressed in CHOK1 cells. It counts as cell-based, CHO-K1.
A further data set has as its system Plasma. Description: Stability in human plasma at 1000 ng/mL at 37 degC. The data set is classed as ADME, cell-free.
Data set [2] addresses T1, Glucagon-like peptide 1 receptor. Nature of the data set: Agonist activity at human GLP1R expressed in CHO cells assessed as increase in cAMP level by cAMP-response element/luciferase activation assay. The data set is classed as functional, cell-based. (Cyclic AMP is a second messenger, typically raised through Gs and lowered through Gi signalling.)

T1 sequence (P43220 whole entry): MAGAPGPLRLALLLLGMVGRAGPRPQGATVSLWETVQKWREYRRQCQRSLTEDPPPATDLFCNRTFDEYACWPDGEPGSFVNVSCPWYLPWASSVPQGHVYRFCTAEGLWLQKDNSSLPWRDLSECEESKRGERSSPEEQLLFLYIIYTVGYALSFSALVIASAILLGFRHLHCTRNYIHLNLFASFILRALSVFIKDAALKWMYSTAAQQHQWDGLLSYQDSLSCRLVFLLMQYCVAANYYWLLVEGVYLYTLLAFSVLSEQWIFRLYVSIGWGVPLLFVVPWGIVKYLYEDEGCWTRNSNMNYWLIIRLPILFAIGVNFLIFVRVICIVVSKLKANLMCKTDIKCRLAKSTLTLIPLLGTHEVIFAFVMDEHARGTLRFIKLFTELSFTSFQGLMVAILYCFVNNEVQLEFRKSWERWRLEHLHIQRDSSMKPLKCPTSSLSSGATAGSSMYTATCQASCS

For the compound `CC[C@H](C)[C@H](NC(=O)[C@H](Cc1ccccc1)NC(=O)[C@H](CCC(=O)O)NC(=O)[C@H](CCCCN)NC(=O)[C@H](C)NC(=O)[C@H](C)NC(=O)[C@H](CCC(N)=O)NC(=O)C(C)(C)NC(=O)[C@H](CCC(=O)O)NC(=O)[C@H](CC(C)C)NC(=O)[C@H](Cc1ccc(O)cc1)NC(=O)[C@H](CO)NC(=O)[C@H](CO)NC(=O)[C@@H](NC(=O)[C@H](CC(=O)O)NC(=O)[C@H](CO)NC(=O)[C@@H](NC(=O)[C@H](Cc1ccccc1)NC(=O)[C@@H](NC(=O)CNC(=O)[C@H](CCC(=O)O)NC(=O)CNC(=O)[C@@H](N)Cc1c[nH]cn1)[C@@H](C)O)[C@@H](C)O)C(C)C)C(=O)N[C@@H](C)C(=O)N[C@@H](Cc1c[nH]c2ccccc12)C(=O)N[C@@H](CC(C)C)C(=O)N[C@H](C(=O)N[C@@H](CCCCN)C(=O)NCC(=O)N[C@@H](CCCNC(=N)N)C(=O)NCC(N)=O)C(C)C`, in data set [1], the half-maximal inhibitory concentration (IC50) (in general, the concentration that gives 50% inhibition) worked out at 2.9 nM. For the same compound, the Stability entry with Plasma was “Stable”.

Consider `CC[C@H](C)[C@@H]1NC(=O)[C@H](Cc2ccccc2)NC(=O)[C@H](CCC(=O)O)NC(=O)[C@@H](NC(=O)[C@H](C)NC(=O)[C@H](C)NC(=O)[C@H](CCC(N)=O)NC(=O)CNC(=O)[C@H](CCC(=O)O)NC(=O)[C@H](CC(C)C)NC(=O)[C@H](Cc2ccc(O)cc2)NC(=O)[C@H](CO)NC(=O)[C@H](CO)NC(=O)[C@@H](NC(=O)[C@H](CC(=O)O)NC(=O)[C@H](CO)NC(=O)[C@@H](NC(=O)[C@H](Cc2ccccc2)NC(=O)[C@@H](NC(=O)CNC(=O)[C@H](CCC(=O)O)NC(=O)CNC(=O)[C@@H](N)Cc2cnc[nH]2)[C@@H](C)O)[C@@H](C)O)C(C)C)CCC(=O)NCCCC[C@@H](C(=O)N[C@@H](Cc2c[nH]c3ccccc23)C(=O)N[C@@H](CC(C)C)C(=O)N[C@H](C(=O)N[C@@H](CCCCN)C(=O)NCC(=O)N[C@@H](CCCNC(=N)N)C(=O)NCC(N)=O)C(C)C)NC1=O`, for which the IC50 in data set [1] came out at 16 nM. Besides, in data set [2], the EC50 (commonly the concentration at which the effect is half-maximal) was found to be 0.024 nM.

`CC[C@H](C)[C@H](NC(=O)[C@H](Cc1ccccc1)NC(=O)[C@H](CCC(=O)O)NC(=O)[C@@H]1CCCCNC(=O)CC[C@H](NC(=O)[C@H](CCC(=O)O)NC(=O)[C@H](CC(C)C)NC(=O)[C@H](Cc2ccc(O)cc2)NC(=O)[C@H](CO)NC(=O)[C@H](CO)NC(=O)[C@@H](NC(=O)[C@H](CC(=O)O)NC(=O)[C@H](CO)NC(=O)[C@@H](NC(=O)[C@H](Cc2ccccc2)NC(=O)[C@@H](NC(=O)CNC(=O)[C@H](CCC(=O)O)NC(=O)CNC(=O)[C@@H](N)Cc2c[nH]cn2)[C@@H](C)O)[C@@H](C)O)C(C)C)CC(=O)N[C@@H](CCC(N)=O)C(=O)N[C@@H](C)C(=O)N[C@@H](C)C(=O)N1)C(=O)N[C@@H](C)C(=O)N[C@@H](Cc1c[nH]c2ccccc12)C(=O)N[C@@H](CC(C)C)C(=O)N[C@H](C(=O)N[C@@H](CCCCN)C(=O)NCC(=O)N[C@@H](CCCNC(=N)N)C(=O)NCC(N)=O)C(C)C`: the IC50 in data set [1] was more than 500 nM. The concentration for a half-maximal effect (EC50) in data set [2] was 1.8 nM.

For `CC[C@H](C)[C@H](NC(=O)[C@H](Cc1ccccc1)NC(=O)[C@H](CCC(=O)O)NC(=O)[C@@H]1CCCCNC(=O)CCC[C@H](NC(=O)[C@H](CCC(=O)O)NC(=O)[C@H](CC(C)C)NC(=O)[C@H](Cc2ccc(O)cc2)NC(=O)[C@H](CO)NC(=O)[C@H](CO)NC(=O)[C@@H](NC(=O)[C@H](CC(=O)O)NC(=O)[C@H](CO)NC(=O)[C@@H](NC(=O)[C@H](Cc2ccccc2)NC(=O)[C@@H](NC(=O)CNC(=O)[C@H](CCC(=O)O)NC(=O)CNC(=O)[C@@H](N)Cc2c[nH]cn2)[C@@H](C)O)[C@@H](C)O)C(C)C)C(=O)N[C@@H](CCC(N)=O)C(=O)N[C@@H](C)C(=O)N[C@@H](C)C(=O)N1)C(=O)N[C@@H](C)C(=O)N[C@@H](Cc1c[nH]c2ccccc12)C(=O)N[C@@H](CC(C)C)C(=O)N[C@H](C(=O)N[C@@H](CCCCN)C(=O)NCC(=O)N[C@@H](CCCNC(=N)N)C(=O)NCC(N)=O)C(C)C`, the IC50 in data set [1] stood at 6.2 nM. For the same compound, the EC50 in data set [2] turned out to be 0.004 nM.

In the case of `CC[C@H](C)[C@H](NC(=O)[C@H](Cc1ccccc1)NC(=O)[C@H](CCC(=O)O)NC(=O)[C@H](CCCCN)NC(=O)[C@H](C)NC(=O)[C@H](C)NC(=O)[C@H](CCC(N)=O)NC(=O)[C@@H]1CCCCNC(=O)CC[C@H](NC(=O)[C@H](CO)NC(=O)[C@@H](NC(=O)[C@H](CC(=O)O)NC(=O)[C@H](CO)NC(=O)[C@@H](NC(=O)[C@H](Cc2ccccc2)NC(=O)[C@@H](NC(=O)CNC(=O)[C@H](CCC(=O)O)NC(=O)CNC(=O)[C@@H](N)Cc2cnc[nH]2)[C@@H](C)O)[C@@H](C)O)C(C)C)C(=O)N[C@@H](Cc2ccc(O)cc2)C(=O)N[C@@H](CC(C)C)C(=O)N[C@@H](CCC(=O)O)C(=O)N1)C(=O)N[C@@H](C)C(=O)N[C@@H](Cc1c[nH]c2ccccc12)C(=O)N[C@@H](CC(C)C)C(=O)N[C@H](C(=O)N[C@@H](CCCCN)C(=O)NCC(=O)N[C@@H](CCCNC(=N)N)C(=O)NCC(N)=O)C(C)C` (H-HGEGTFTSDVSEYLEKQAAKEFIAWLVKGRG-NH2; lactam 12-16), the IC50 in data set [1] came out at 3.6 nM. Moreover, the 50% effective concentration (EC50) in data set [2] was determined as 0.006 nM. In addition, the Stability result with Plasma is recorded as “Stable”.

`CC[C@H](C)[C@H](NC(=O)[C@H](Cc1ccccc1)NC(=O)[C@H](CCC(=O)O)NC(=O)[C@H](CCCCN)NC(=O)[C@H](C)NC(=O)[C@H](C)NC(=O)[C@@H]1CCCCNC(=O)CC[C@H](NC(=O)[C@H](CO)NC(=O)[C@H](CO)NC(=O)[C@@H](NC(=O)[C@H](CC(=O)O)NC(=O)[C@H](CO)NC(=O)[C@@H](NC(=O)[C@H](Cc2ccccc2)NC(=O)[C@@H](NC(=O)CNC(=O)[C@H](CCC(=O)O)NC(=O)CNC(=O)[C@@H](N)Cc2c[nH]cn2)[C@@H](C)O)[C@@H](C)O)C(C)C)C(=O)N[C@@H](CC(C)C)C(=O)N[C@@H](CCC(=O)O)C(=O)NCC(=O)N1)C(=O)N[C@@H](C)C(=O)N[C@@H](Cc1c[nH]c2ccccc12)C(=O)N[C@@H](CC(C)C)C(=O)N[C@H](C(=O)N[C@@H](CCCCN)C(=O)NCC(=O)N[C@@H](CCCNC(=N)N)C(=O)NCC(N)=O)C(C)C` (H-HGEGTFTSDVSSELEGKAAKEFIAWLVKGRG-NH2; lactam 13-17) displayed an IC50 in data set [1] of 17 nM. The concentration for a half-maximal effect (EC50) in data set [2] was 0.077 nM.

The compound `CC[C@H](C)[C@H](NC(=O)[C@H](Cc1ccccc1)NC(=O)[C@H](CCC(=O)O)NC(=O)[C@@H]1CCCCNC(=O)C[C@H](NC(=O)[C@H](CCC(=O)O)NC(=O)[C@H](CC(C)C)NC(=O)[C@H](Cc2ccc(O)cc2)NC(=O)[C@H](CO)NC(=O)[C@H](CO)NC(=O)[C@@H](NC(=O)[C@H](CC(=O)O)NC(=O)[C@H](CO)NC(=O)[C@@H](NC(=O)[C@H](Cc2ccccc2)NC(=O)[C@@H](NC(=O)CNC(=O)[C@H](CCC(=O)O)NC(=O)CNC(=O)[C@@H](N)Cc2c[nH]cn2)[C@@H](C)O)[C@@H](C)O)C(C)C)C(=O)N[C@@H](CCC(N)=O)C(=O)N[C@@H](C)C(=O)N[C@@H](C)C(=O)N1)C(=O)N[C@@H](C)C(=O)N[C@@H](Cc1c[nH]c2ccccc12)C(=O)N[C@@H](CC(C)C)C(=O)N[C@H](C(=O)N[C@@H](CCCCN)C(=O)NCC(=O)N[C@@H](CCCNC(=N)N)C(=O)NCC(N)=O)C(C)C` (H-HGEGTFTSDVSSYLEDQAAKEFIAWLVKGRG-NH2; lactam 16-20) yielded an IC50 in data set [1] of 64 nM. The EC50 in data set [2] is 0.14 nM.

On to `CC(C)C[C@H](NC(=O)[C@H](Cc1ccc(O)cc1)NC(=O)[C@H](CO)NC(=O)[C@H](CO)NC(=O)[C@@H](NC(=O)[C@H](CC(=O)O)NC(=O)[C@H](CO)NC(=O)[C@@H](NC(=O)[C@H](Cc1ccccc1)NC(=O)[C@@H](NC(=O)CNC(=O)[C@H](CCC(=O)O)NC(=O)CNC(=O)[C@@H](N)Cc1c[nH]cn1)[C@@H](C)O)[C@@H](C)O)C(C)C)C(=O)N[C@@H](CCC(=O)O)C(=O)NCC(=O)N[C@@H](CCC(N)=O)C(=O)N[C@@H](C)C(=O)N[C@H]1CCC(=O)NCCCC[C@@H](C(=O)N[C@@H](C)C(=O)N[C@@H](Cc2c[nH]c3ccccc23)C(=O)N[C@@H](CC(C)C)C(=O)N[C@H](C(=O)N[C@@H](CCCCN)C(=O)NCC(=O)N[C@@H](CCCNC(=N)N)C(=O)NCC(N)=O)C(C)C)NC(=O)[C@H](Cc2ccccc2)NC(=O)[C@H](CCC(=O)O)NC(=O)[C@H](CCCCN)NC1=O` (H-HGEGTFTSDVSSYLEGQAEKEFKAWLVKGRG-NH2; lactam 19-23), for which the IC50 in data set [1] was more than 1000 nM. The EC50 in data set [2] stood at 15 nM.

Turning to `CC[C@H](C)[C@H](NC(=O)[C@H](Cc1ccccc1)NC(=O)[C@H](CCC(=O)O)NC(=O)[C@@H]1CCC(=O)NCCCC[C@H](NC(=O)[C@H](CCC(=O)O)NC(=O)[C@H](CC(C)C)NC(=O)[C@H](Cc2ccc(O)cc2)NC(=O)[C@H](CO)NC(=O)[C@H](CO)NC(=O)[C@@H](NC(=O)[C@H](CC(=O)O)NC(=O)[C@H](CO)NC(=O)[C@@H](NC(=O)[C@H](Cc2ccccc2)NC(=O)[C@@H](NC(=O)CNC(=O)[C@H](CCC(=O)O)NC(=O)CNC(=O)[C@@H](N)Cc2c[nH]cn2)[C@@H](C)O)[C@@H](C)O)C(C)C)C(=O)N[C@@H](CCC(N)=O)C(=O)N[C@@H](C)C(=O)N[C@@H](C)C(=O)N1)C(=O)N[C@@H](C)C(=O)N[C@@H](Cc1c[nH]c2ccccc12)C(=O)N[C@@H](CC(C)C)C(=O)N[C@H](C(=O)N[C@@H](CCCCN)C(=O)NCC(=O)N[C@@H](CCCNC(=N)N)C(=O)NCC(N)=O)C(C)C` (H-HGEGTFTSDVSSYLEKQAAEEFIAWLVKGRG-NH2; lactam 16-20), in data set [1], the IC50 was determined as 2.7 nM. Also, the EC50 in data set [2] came to 0.008 nM.

Take `CC[C@H](C)[C@H](NC(=O)[C@H](Cc1ccccc1)NC(=O)[C@H](CCC(=O)O)NC(=O)[C@@H]1CCCCNC(=O)c2ccc(cc2)C[C@H](NC(=O)[C@H](CO)NC(=O)[C@H](CO)NC(=O)[C@@H](NC(=O)[C@H](CC(=O)O)NC(=O)[C@H](CO)NC(=O)[C@@H](NC(=O)[C@H](Cc2ccccc2)NC(=O)[C@@H](NC(=O)CNC(=O)[C@H](CCC(=O)O)NC(=O)CNC(=O)[C@@H](N)Cc2c[nH]cn2)[C@@H](C)O)[C@@H](C)O)C(C)C)C(=O)N[C@@H](CC(C)C)C(=O)N[C@@H](CCC(=O)O)C(=O)NCC(=O)N[C@@H](CCC(N)=O)C(=O)N[C@@H](C)C(=O)N[C@@H](C)C(=O)N1)C(=O)N[C@@H](C)C(=O)N[C@@H](Cc1c[nH]c2ccccc12)C(=O)N[C@@H](CC(C)C)C(=O)N[C@H](C(=O)N[C@@H](CCCCN)C(=O)NCC(=O)N[C@@H](CCCNC(=N)N)C(=O)NCC(N)=O)C(C)C` (H-HGEGTFTSDVSS[Phe(4-COOH)]LEGQAAKEFIAWLVKGRG-NH2; lactam 13-20): in data set [1], the IC50 turned out to be 2000 nM. The 50% effective concentration (EC50) in data set [2] worked out at 9 nM.
